Measured values: ChEMBL document CHEMBL5352496, “Design, synthesis and biological activity of hybrid antifungals derived from fluconazole and mebendazole” (Eur J Med Chem, 2023)
≈ marks a conversion by molar mass, not a printed value.

Tests used:
[1] = tested on: Cryptococcus neoformans; assay: Antifungal activity against Cryptococcus neoformans IFRC 340 incubated for 24 hrs by broth microdilution method; type: functional
[2] = tested on: Candida tropicalis; assay: Antifungal activity against Candida tropicalis FDC 138 incubated for 24 hrs by broth microdilution method; type: functional
[3] = tested on: Candida parapsilosis; assay: Antifungal activity against Candida parapsilosis ATCC 22019 incubated for 24 hrs by broth microdilution method; type: functional; conditions: Lodderomyces parapsilosis
[4] = tested on: Nakaseomyces glabratus; assay: Antifungal activity against Candida glabrata FDC 192 incubated for 24 hrs by broth microdilution method; type: functional
[5] = tested on: Candida albicans; assay: Antifungal activity against Candida albicans FDC 151 incubated for 24 hrs by broth microdilution method; type: functional
[6] = tested on: Candida albicans; assay: Antifungal activity against Candida albicans CMRC 19 incubated for 24 hrs by broth microdilution method; type: functional
[7] = tested on: Nakaseomyces glabratus; assay: Antifungal activity against Candida glabrata CMRC 89 incubated for 24 hrs by broth microdilution method; type: functional
[8] = tested on: Candida albicans; assay: Antifungal activity against Candida albicans CMRC 192 incubated for 24 hrs by broth microdilution method; type: functional
[9] = tested on: HepG2; assay: Cytotoxicity against human HepG2 cells assessed as cell viability at 25 ug/ml incubated for 48 hrs by MTT assay; type: toxicity, cell-based; conditions: hepg2, 48 h, dose 25 µg/ml
[10] = tested on: BEAS-2B; assay: Cytotoxicity against human BEAS-2B cells assessed as cell viability at 25 ug/ml incubated for 48 hrs by MTT assay; type: toxicity, cell-based; conditions: dose 25 µg/ml

Structure (SMILES) | MIC [1] | MIC [2] | MIC [3] | MIC [4] | MIC [5] | MIC [6] | MIC [7] | MIC [8] | Activity [9] | Activity [10]
O=C(c1ccccc1)c1ccc2[nH]c(SCC(O)(Cn3cncn3)c3ccc(F)cc3F)nc2c1 (stereo not drawn) | 1 µg/mL (≈ 2.03 µM) | 1 µg/mL (≈ 2.03 µM) | 2 µg/mL (≈ 4.07 µM) | 1 µg/mL (≈ 2.03 µM) | 2 µg/mL (≈ 4.07 µM) | 2 µg/mL (≈ 4.07 µM) | 8 µg/mL (≈ 16.3 µM) | 1 µg/mL (≈ 2.03 µM) | – | –
OC(CSc1nc2ccccc2s1)(Cn1cncn1)c1ccc(F)cc1 (stereo not drawn) | 32 µg/mL (≈ 82.8 µM) | 16 µg/mL (≈ 41.4 µM) | 16 µg/mL (≈ 41.4 µM) | > 64 µg/mL | > 64 µg/mL | 8 µg/mL (≈ 20.7 µM) | 8 µg/mL (≈ 20.7 µM) | 16 µg/mL (≈ 41.4 µM) | – | –
OC(CSc1nc2ccccc2[nH]1)(Cn1cncn1)c1ccc(Cl)cc1Cl (stereo not drawn) | 8 µg/mL (≈ 19 µM) | 8 µg/mL (≈ 19 µM) | 8 µg/mL (≈ 19 µM) | 16 µg/mL (≈ 38.1 µM) | 8 µg/mL (≈ 19 µM) | 8 µg/mL (≈ 19 µM) | 16 µg/mL (≈ 38.1 µM) | 8 µg/mL (≈ 19 µM) | – | –
OC(CSc1nc2ccccc2[nH]1)(Cn1cncn1)c1ccccc1 (stereo not drawn) | > 64 µg/mL | 32 µg/mL (≈ 91.1 µM) | 32 µg/mL (≈ 91.1 µM) | > 64 µg/mL | > 64 µg/mL | > 64 µg/mL | 16 µg/mL (≈ 45.5 µM) | > 64 µg/mL | – | –
O=C(c1ccccc1)c1ccc2[nH]c(SCC(O)(Cn3cncn3)c3ccc(Cl)cc3)nc2c1 (stereo not drawn) | 0.125 µg/mL (≈ 0.255 µM) | < 0.063 µg/mL | < 0.063 µg/mL | 0.125 µg/mL (≈ 0.255 µM) | < 0.063 µg/mL | 0.5 µg/mL (≈ 1.02 µM) | 1 µg/mL (≈ 2.04 µM) | 0.5 µg/mL (≈ 1.02 µM) | Toxic | Toxic
O=C(c1ccccc1)c1ccc2[nH]c(SCC(O)(Cn3cncn3)c3ccccc3)nc2c1 (stereo not drawn) | 2 µg/mL (≈ 4.39 µM) | 8 µg/mL (≈ 17.6 µM) | 2 µg/mL (≈ 4.39 µM) | 4 µg/mL (≈ 8.78 µM) | 8 µg/mL (≈ 17.6 µM) | 4 µg/mL (≈ 8.78 µM) | 8 µg/mL (≈ 17.6 µM) | 4 µg/mL (≈ 8.78 µM) | – | –
OC(CSc1nc2ccccc2s1)(Cn1cncn1)c1ccccc1 (stereo not drawn) | 16 µg/mL (≈ 43.4 µM) | 16 µg/mL (≈ 43.4 µM) | 8 µg/mL (≈ 21.7 µM) | 32 µg/mL (≈ 86.8 µM) | 32 µg/mL (≈ 86.8 µM) | 16 µg/mL (≈ 43.4 µM) | 32 µg/mL (≈ 86.8 µM) | 16 µg/mL (≈ 43.4 µM) | – | –
OC(CSc1nc2ccccc2[nH]1)(Cn1cncn1)c1ccc(Cl)cc1 (stereo not drawn) | 16 µg/mL (≈ 41.5 µM) | 8 µg/mL (≈ 20.7 µM) | 16 µg/mL (≈ 41.5 µM) | 16 µg/mL (≈ 41.5 µM) | 4 µg/mL (≈ 10.4 µM) | 8 µg/mL (≈ 20.7 µM) | 16 µg/mL (≈ 41.5 µM) | 8 µg/mL (≈ 20.7 µM) | – | –
O=C(c1ccccc1)c1ccc2[nH]c(SCC(O)(Cn3cncn3)c3ccc(Cl)cc3Cl)nc2c1 (stereo not drawn) | 1 µg/mL (≈ 1.91 µM) | 0.125 µg/mL (≈ 0.238 µM) | 2 µg/mL (≈ 3.81 µM) | 1 µg/mL (≈ 1.91 µM) | 0.063 µg/mL (≈ 0.12 µM) | 0.5 µg/mL (≈ 0.953 µM) | 2 µg/mL (≈ 3.81 µM) | 1 µg/mL (≈ 1.91 µM) | – | –
O=C(c1ccccc1)c1ccc2[nH]c(SCC(O)(Cn3cncn3)c3ccc(F)cc3)nc2c1 (stereo not drawn) | 32 µg/mL (≈ 67.6 µM) | 16 µg/mL (≈ 33.8 µM) | > 64 µg/mL | > 64 µg/mL | 16 µg/mL (≈ 33.8 µM) | 8 µg/mL (≈ 16.9 µM) | 16 µg/mL (≈ 33.8 µM) | 8 µg/mL (≈ 16.9 µM) | – | –
OC(CSc1nc2ccccc2[nH]1)(Cn1cncn1)c1ccc(F)cc1F (stereo not drawn) | 32 µg/mL (≈ 82.6 µM) | 32 µg/mL (≈ 82.6 µM) | > 64 µg/mL | > 64 µg/mL | > 64 µg/mL | > 64 µg/mL | > 64 µg/mL | > 64 µg/mL | – | –
OC(CSc1nc2ccccc2s1)(Cn1cncn1)c1ccc(F)cc1F (stereo not drawn) | > 64 µg/mL | > 64 µg/mL | > 64 µg/mL | > 64 µg/mL | > 64 µg/mL | 16 µg/mL (≈ 39.6 µM) | 32 µg/mL (≈ 79.1 µM) | 32 µg/mL (≈ 79.1 µM) | – | –
OC(CSc1nc2ccccc2s1)(Cn1cncn1)c1ccc(Cl)cc1 (stereo not drawn) | 4 µg/mL (≈ 9.93 µM) | 4 µg/mL (≈ 9.93 µM) | 8 µg/mL (≈ 19.9 µM) | 8 µg/mL (≈ 19.9 µM) | 8 µg/mL (≈ 19.9 µM) | 4 µg/mL (≈ 9.93 µM) | 2 µg/mL (≈ 4.96 µM) | 4 µg/mL (≈ 9.93 µM) | – | –
OC(CSc1nc2ccccc2s1)(Cn1cncn1)c1ccc(Cl)cc1Cl (stereo not drawn) | 16 µg/mL (≈ 36.6 µM) | 8 µg/mL (≈ 18.3 µM) | 16 µg/mL (≈ 36.6 µM) | 16 µg/mL (≈ 36.6 µM) | 8 µg/mL (≈ 18.3 µM) | 16 µg/mL (≈ 36.6 µM) | 16 µg/mL (≈ 36.6 µM) | 8 µg/mL (≈ 18.3 µM) | – | –
OC(CSc1nc2ccccc2[nH]1)(Cn1cncn1)c1ccc(F)cc1 (stereo not drawn) | 0.125 µg/mL (≈ 0.338 µM) | < 0.063 µg/mL | < 0.063 µg/mL | 0.125 µg/mL (≈ 0.338 µM) | 0.063 µg/mL (≈ 0.171 µM) | 0.125 µg/mL (≈ 0.338 µM) | 1 µg/mL (≈ 2.71 µM) | 0.25 µg/mL (≈ 0.677 µM) | Toxic | Toxic
O=[N+]([O-])c1ccc2[nH]c(SCC(O)(Cn3cncn3)c3ccc(F)cc3F)nc2c1 (stereo not drawn) | 32 µg/mL (≈ 74 µM) | 32 µg/mL (≈ 74 µM) | > 64 µg/mL | > 64 µg/mL | 32 µg/mL (≈ 74 µM) | > 64 µg/mL | > 64 µg/mL | > 64 µg/mL | – | –
OC(c1ccccc1)c1ccc2[nH]c(SCC(O)(Cn3cncn3)c3ccccc3)nc2c1 (stereo not drawn) | 8 µg/mL (≈ 17.5 µM) | 2 µg/mL (≈ 4.37 µM) | 4 µg/mL (≈ 8.74 µM) | 8 µg/mL (≈ 17.5 µM) | 2 µg/mL (≈ 4.37 µM) | 8 µg/mL (≈ 17.5 µM) | 16 µg/mL (≈ 35 µM) | 8 µg/mL (≈ 17.5 µM) | – | –
OC(Cn1cncn1)(Cn1cncn1)c1ccc(F)cc1F [FLUCONAZOLE] | 0.5 µg/mL (≈ 1.63 µM) | 0.25 µg/mL (≈ 0.816 µM) | 0.5 µg/mL (≈ 1.63 µM) | 1 µg/mL (≈ 3.27 µM) | 0.5 µg/mL (≈ 1.63 µM) | 0.25 µg/mL (≈ 0.816 µM) | 2 µg/mL (≈ 6.53 µM) | 0.25 µg/mL (≈ 0.816 µM) | – | –
